# Measured values taken from US20140243334A1, “SUBSTITUTED HYDOXAMIC ACIDS AND USES THEREOF” (Millennium Pharmaceuticals, Inc., priority 2010, published 2014).
# Target: T1, purified human HDAC6 (Homo sapiens, UniProt Q9UBN7)
# T1 construct: purchased BPS Bioscience 5006
# T1 sequence (Q9UBN7 1-1215): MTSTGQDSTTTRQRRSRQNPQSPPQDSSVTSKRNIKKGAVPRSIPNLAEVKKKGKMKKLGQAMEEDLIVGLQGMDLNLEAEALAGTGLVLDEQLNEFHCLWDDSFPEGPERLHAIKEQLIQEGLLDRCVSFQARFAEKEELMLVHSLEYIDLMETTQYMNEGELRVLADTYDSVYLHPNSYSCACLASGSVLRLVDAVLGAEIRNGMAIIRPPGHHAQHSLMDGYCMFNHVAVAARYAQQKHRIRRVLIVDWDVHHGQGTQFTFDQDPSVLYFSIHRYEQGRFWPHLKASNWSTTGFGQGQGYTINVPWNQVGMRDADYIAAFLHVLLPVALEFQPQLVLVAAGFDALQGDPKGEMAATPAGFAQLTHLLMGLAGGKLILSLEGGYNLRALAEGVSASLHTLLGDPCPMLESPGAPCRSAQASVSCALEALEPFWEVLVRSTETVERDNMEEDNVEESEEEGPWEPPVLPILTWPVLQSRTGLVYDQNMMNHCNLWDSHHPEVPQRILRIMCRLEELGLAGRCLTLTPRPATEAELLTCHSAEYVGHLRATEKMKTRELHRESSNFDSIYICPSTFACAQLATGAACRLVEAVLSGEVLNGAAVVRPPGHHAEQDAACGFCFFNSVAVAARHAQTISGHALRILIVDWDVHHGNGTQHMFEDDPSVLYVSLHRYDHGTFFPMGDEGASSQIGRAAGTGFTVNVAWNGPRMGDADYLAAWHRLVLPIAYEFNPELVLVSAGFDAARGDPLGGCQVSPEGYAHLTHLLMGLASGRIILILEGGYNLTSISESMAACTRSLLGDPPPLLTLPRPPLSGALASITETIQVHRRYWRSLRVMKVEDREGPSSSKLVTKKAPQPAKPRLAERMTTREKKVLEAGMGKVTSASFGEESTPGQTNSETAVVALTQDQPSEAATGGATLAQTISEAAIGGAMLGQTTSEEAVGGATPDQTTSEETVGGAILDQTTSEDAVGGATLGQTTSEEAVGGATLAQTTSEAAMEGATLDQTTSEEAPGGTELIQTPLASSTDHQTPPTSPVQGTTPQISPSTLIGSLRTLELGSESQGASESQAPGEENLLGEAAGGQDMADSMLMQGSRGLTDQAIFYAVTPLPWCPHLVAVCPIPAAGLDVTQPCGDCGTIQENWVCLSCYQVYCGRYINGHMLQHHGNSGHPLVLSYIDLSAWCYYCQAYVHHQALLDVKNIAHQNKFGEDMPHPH
# Assay: HDAC6 Enzyme Assay
# Type: biochemical
# Details: HDAC6 inhibition at a compound concentration of 0.412 μM; read-out: Percent Inhibition at 0.412 μM
# Procedure: To measure the inhibition of HDAC6 activity, purified human HDAC6 (BPS Bioscience; Cat. No. 5006) is incubated with substrate Ac-Arg-Gly-Lys(Ac)-AMC peptide (Bachem Biosciences; Cat. No. I-1925) for 1 hour at 30° C. in the presence of test compounds or vehicle DMSO control. The reaction is stopped with the HDAC inhibitor trichostatin A (Sigma; Cat. No. T8552) and the amount of Arg-Gly-Lys-AMC generated is quantitated by digestion with trypsin (Sigma; Cat. No. T1426) and subsequent measurement of the amount of AMC released using a fluorescent plate reader (Pherastar; BMG Technologies) set at Ex 340 nm and Em 460 nm. Concentration response curves are generated by calculating the fluorescence increase in test compound-treated samples relative to DMSO-treated controls, and enzyme inhibition (IC50) values are determined from those curves.
compound,measurement,value
"O=C(NO)C1CCc2ccc(-c3ccoc3)cc2C1 (centres unmarked) [Compound I-103, 7-(3-furyl)-N-hydroxy-1,2,3,4-tetrahydronaphthalene-2-carboxamide]",inhibition at 0.412 µM,72%
"O=C(NO)C1CCc2ccc(Oc3cccc(NC(=O)C4CC4)c3)cc2C1 (centres unmarked) [Compound I-50, 7-{3-[(cyclopropylcarbonyl)amino]phenoxy}-N-hydroxy-1,2,3,4-tetrahydronaphthalene-2-carboxamide]",inhibition at 0.412 µM,84%
"O=C(NO)C1CCc2ccc(-c3ccc4[nH]cnc4c3)cc2C1 (centres unmarked) [Compound I-81, 7-(1H-benzimidazol-5-yl)-N-hydroxy-1,2,3,4-tetrahydronaphthalene-2-carboxamide]",inhibition at 0.412 µM,89%
"CC(=O)Nc1cccc(-c2ccc3c(c2)CCC(C(=O)NO)C3)c1 (centres unmarked) [Compound I-74, 6-[3-(acetylamino)phenyl]-N-hydroxy-1,2,3,4-tetrahydronaphthalene-2-carboxamide]",inhibition at 0.412 µM,85%
"COc1ccc2c(c1)CC(C(=O)NO)CC2 (centres unmarked) [Compound I-1, N-hydroxy-7-methoxy-1,2,3,4-tetrahydronaphthalene-2-carboxamide]",inhibition at 0.412 µM,8%
"COc1ccccc1-c1ccc2c(c1)CC(C(=O)NO)CC2 (centres unmarked) [Compound I-68, N-hydroxy-7-(2-methoxyphenyl)-1,2,3,4-tetrahydronaphthalene-2-carboxamide]",inhibition at 0.412 µM,76%
"Cc1ccc(C)c(-c2ccc3c(c2)CC(C(=O)NO)CC3)c1 (centres unmarked) [Compound I-111, 7-(2,5-dimethylphenyl)-N-hydroxy-1,2,3,4-tetrahydronaphthalene-2-carboxamide]",inhibition at 0.412 µM,74%
"CC(C)(C)OC(=O)Nc1ccc(Oc2ccc3c(c2)CC(C(=O)NO)CC3)cc1 (centres unmarked) [Compound I-52, tert-butyl [4-({7-[(hydroxyamino)carbonyl]-5,6,7,8-tetrahydronaphthalen-2-yl}oxy)phenyl]carbamate]",inhibition at 0.412 µM,74%
"CC1(C(=O)Nc2ccc3c(c2)CC(C(=O)NO)CC3)CCNCC1 (centres unmarked) [Compound I-18, N-{7-[(hydroxyamino)carbonyl]-5,6,7,8-tetrahydronaphthalen-2-yl}-4-methylpiperidine-4-carboxamide]",inhibition at 0.412 µM,54%
"O=C(NO)C1CCc2ccc(Oc3ccncc3)cc2C1 (centres unmarked) [Compound I-12, N-hydroxy-7-(pyridin-4-yloxy)-1,2,3,4-tetrahydronaphthalene-2-carboxamide]",inhibition at 0.412 µM,61%
"CC1(C(=O)Nc2ccc3c(c2)CCC(C(=O)NO)C3)CCNCC1 (centres unmarked) [Compound I-85, N-{6-[(hydroxyamino)carbonyl]-5,6,7,8-tetrahydronaphthalen-2-yl}-4-methylpiperidine-4-carboxamide]",inhibition at 0.412 µM,74%
"CC(C)(C#N)c1ccc(-c2ccc3c(c2)CC(C(=O)NO)CC3)cc1 (centres unmarked) [Compound I-120, 7-[4-(1-cyano-1-methylethyl)phenyl]-N-hydroxy-1,2,3,4-tetrahydronaphthalene-2-carboxamide]",inhibition at 0.412 µM,55%
"CN(C)C(=O)c1cc(-c2ccc3c(c2)CC(C(=O)NO)CC3)ccc1Cl (centres unmarked) [Compound I-115, 7-{4-chloro-3-[(dimethylamino)carbonyl]phenyl}-N-hydroxy-1,2,3,4-tetrahydronaphthalene-2-carboxamide]",inhibition at 0.412 µM,83%
"CC(C)Oc1ccc(-c2ccc3c(c2)CC(C(=O)NO)CC3)cc1 (centres unmarked) [Compound I-89, N-hydroxy-7-(4-isopropoxyphenyl)-1,2,3,4-tetrahydronaphthalene-2-carboxamide]",inhibition at 0.412 µM,66%
"O=C(NO)C1CCc2ccc(Nc3ccccc3)cc2C1 (centres unmarked) [Compound I-23, 7-anilino-N-hydroxy-1,2,3,4-tetrahydronaphthalene-2-carboxamide]",inhibition at 0.412 µM,70%
"COc1ccccc1Nc1ccc2c(c1)CCC(C(=O)NO)C2 (centres unmarked) [Compound I-84, N-hydroxy-6-[(2-methoxyphenyl)amino]-1,2,3,4-tetrahydronaphthalene-2-carboxamide]",inhibition at 0.412 µM,38%
"O=C(NO)C1CCc2cccc(Oc3ccnc(NC(=O)C4CC4)c3)c2C1 (centres unmarked) [Compound I-16, 8-({2-[(cyclopropylcarbonyl)amino]pyridin-4-yl}oxy)-N-hydroxy-1,2,3,4-tetrahydronaphthalene-2-carboxamide]",inhibition at 0.412 µM,13%
"O=C(NO)C1CCc2ccc(Oc3cccc(Cl)c3)cc2C1 (centres unmarked) [Compound I-9, 7-(3-chlorophenoxy)-N-hydroxy-1,2,3,4-tetrahydronaphthalene-2-carboxamide]",inhibition at 0.412 µM,74%
"O=C(NO)C1CCc2ccc(-c3c[nH]c4ccccc34)cc2C1 (centres unmarked) [Compound I-82, N-hydroxy-7-(1H-indol-3-yl)-1,2,3,4-tetrahydronaphthalene-2-carboxamide]",inhibition at 0.412 µM,83%
"O=C(NO)C1CCc2ccc(-c3ccc(N4CCOCC4)nc3)cc2C1 (centres unmarked) [Compound I-99, N-hydroxy-7-(6-morpholin-4-ylpyridin-3-yl)-1,2,3,4-tetrahydronaphthalene-2-carboxamide]",inhibition at 0.412 µM,82%
"CC(C)(C)OC(=O)Nc1ccc2c(c1)CC(C(=O)NO)CC2 (centres unmarked) [Compound I-20, tert-butyl {7-[(hydroxyamino)carbonyl]-5,6,7,8-tetrahydronaphthalen-2-yl}carbamate]",inhibition at 0.412 µM,61%
"O=C(NO)C1CCc2cc(Oc3ccccc3)ccc2C1 (centres unmarked) [Compound I-25, N-hydroxy-6-phenoxy-1,2,3,4-tetrahydronaphthalene-2-carboxamide]",inhibition at 0.412 µM,27%
"CN(C)c1ccc(-c2ccc3c(c2)CC(C(=O)NO)CC3)cc1 (centres unmarked) [Compound I-92, 7-[4-(dimethylamino)phenyl]-N-hydroxy-1,2,3,4-tetrahydronaphthalene-2-carboxamide]",inhibition at 0.412 µM,67%
"O=C(NO)C1CCc2ccc(-c3cccc(OCc4ccccc4)c3)cc2C1 (centres unmarked) [Compound I-48, 7-[3-(benzyloxy)phenyl]-N-hydroxy-1,2,3,4-tetrahydronaphthalene-2-carboxamide]",inhibition at 0.412 µM,73%
"O=C1CCc2c(Oc3ccc4c(c3)C[C@@H](C(=O)NO)CC4)ccnc2N1 [Compound I-4, (2S)—N-hydroxy-7-[(7-oxo-5,6,7,8-tetrahydro-1,8-naphthyridin-4-yl)oxy]-1,2,3,4-tetrahydronaphthalene-2-carboxamide]",inhibition at 0.412 µM,85%
"O=C(NO)C1CCc2ccc(Oc3ccccc3)cc2C1 (centres unmarked) [Compound I-8, N-hydroxy-7-phenoxy-1,2,3,4-tetrahydronaphthalene-2-carboxamide]",inhibition at 0.412 µM,73%
"CC1(C(=O)NO)CCc2ccc(Oc3ccc(Cl)cc3)cc2C1 (centres unmarked) [Compound I-124, 7-(4-Chlorophenoxy)-N-hydroxy-2-methyl-1,2,3,4-tetrahydronaphthalene-2-carboxamide]",inhibition at 0.412 µM,16%
"O=C(NO)C1CCc2cc(Oc3cccc(Cl)c3)ccc2C1 (centres unmarked) [Compound I-19, 6-(3-chlorophenoxy)-N-hydroxy-1,2,3,4-tetrahydronaphthalene-2-carboxamide]",inhibition at 0.412 µM,23%
"CN(C)CCOc1ccc2c(c1)CC(C(=O)NO)CC2 (centres unmarked) [Compound I-44, 7-[2-(dimethylamino)ethoxy]-N-hydroxy-1,2,3,4-tetrahydronaphthalene-2-carboxamide]",inhibition at 0.412 µM,34%
"O=C(Nc1ccccc1)Nc1ccc2c(c1)CC(C(=O)NO)CC2 (centres unmarked) [Compound I-30, 7-[(Anilinocarbonyl)amino]-N-hydroxy-1,2,3,4-tetrahydronaphthalene-2-carboxamide]",inhibition at 0.412 µM,86%
"O=C(NO)C1CCc2cc(NC(=O)C3CC3)ccc2C1 (centres unmarked) [Compound I-77, 6-[(cyclopropylcarbonyl)amino]-N-hydroxy-1,2,3,4-tetrahydronaphthalene-2-carboxamide]",inhibition at 0.412 µM,68%
"CC(C)c1cccc(Oc2ccc3c(c2)CC(C(=O)NO)CC3)c1 (centres unmarked) [Compound I-47, N-hydroxy-7-(3-isopropylphenoxy)-1,2,3,4-tetrahydronaphthalene-2-carboxamide]",inhibition at 0.412 µM,74%
